Experimental data: patent US11679107B2 (Eisai R&D Management Co., Ltd., priority 2018, dated 2023)
Read-outs that look alike come from different tables or passages of the source.

Experiments:
SF3b complexes = target: T1, SF3b complexes (Homo sapiens, UniProt O75533+Q7RTV0); experiment: Scintillation proximity assay (SPA) with [3H]-labelled pladienolide probe; type: binding; settings: SF3B1 (WT); geometric mean; read-out: SPA-ATS GMean IC50 (nM) SF3B1 (WT)
T1 construct: endogenous in cells; host or cells: Nuclear extracts; A HeLa S3 extract preparation is described for the in vitro splicing assay
How it was run: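 SF3b complexes captured from nuclear extracts on anti-SF3B1 antibody SPA beads; test compounds pre-incubated 30 min before 2.5 nM [3H]-pladienolide probe added, then 30 min incubation. Bound probe read by scintillation; values from non-linear regression of concentration–response curves.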

[1] = system: Ad2 variant pre-mRNAs spliced in HeLa S3 nuclear extracts; experiment: In vitro splicing assay (IVS), RT-qPCR of spliced product; type: biochemical; settings: for IC50: geometric mean; for Ratio Ad2.1/2.2: ratio of IVS IC50 Ad2.1 to Ad2.2
How it was run: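 Read-out is one-step TaqMan RT-qPCR of spliced Ad2 mRNA with Ftz as reference, normalized to DMSO and fit by non-linear regression. Reactions held HeLa S3 nuclear extract, 2 ng Ad2-derived pre-mRNA and test compound, with 15 min preincubation. Splicing was started with ATP-containing activation buffer and run 90 min at 30 °C.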

[2] = system: Panc 05.04 cells (SF3b K700E mutant); experiment: Cell proliferation and viability, CellTiter-Glo, 72 hours; type: cell-based; settings: for GI50: geometric mean
How it was run: (§1)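 ATP luminescence (CellTiter-Glo) was measured 72 h after treatment with compound at 10 μM–100 pM (11 points, half-log) in 0.1% DMSO. The Panc line was grown in RPMI-1640 plus insulin and 15% FBS, the other in 10% FBS. Data were normalised to time zero and vehicle controls, where −100% is cidal and 0% static.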

[3] = system: NCI-H1568 cells (high MCL1); experiment: as above; type: cell-based; settings: for GI50: geometric mean
How it was run: as §1

[4] = Ad2.1 pre-mRNA substrate, read-out: qPCR-IVS-ATS GMean IC50 (nM) Ad2.1
[5] = Ad2.2 pre-mRNA substrate, read-out: qPCR-IVS-ATS GMean IC50 (nM) Ad2.2
[6] = 72 h, PANC0504.1, -100% = cidal, 0% = static, 100% = uninhibited growth
[7] = Panc 05.04, read-out: CTGlo-ATS GMean GI50 (nM) 72 h PANC0504.1, 72 h, PANC0504.1
[8] = 72 h, NCIH1568.1, -100% = cidal, 0% = static, 100% = uninhibited growth
[9] = NCI-H1568, read-out: CTGlo-ATS GMean GI50 (nM) 72 h NCIH1568.1, 72 h, NCIH1568.1
[10] = Panc 05.04, 72 h, read-out: CTGlo-ATS GMean GI50 (nM) 72 h PANC0504.1, 72 h, PANC0504.1
[11] = NCI-H1568, 72 h, read-out: CTGlo-ATS GMean GI50 (nM) 72 h NCIH1568.1, 72 h, NCIH1568.1
[12] = PANC0504.1 cells, 72 h, −100% cidal, 0% static, 100% maximal growth
[13] = Panc 05.04, read-out: CTGlo-ATS GMean GI50 (nM) 72 h PANC0504.1, PANC0504.1 cells, 72 h
[14] = NCI-H1568, read-out: CTGlo-ATS GMean GI50 (nM) 72 h NCIH1568.1, NCIH1568.1 cells, 72 h
[15] = NCIH1568.1 cells, 72 h, −100% cidal, 0% static, 100% maximal growth

Structure (SMILES) | IC50 (SF3b complexes) [nM] | IC50 [1, 4] [nM] | IC50 [1, 5] [nM] | Ratio Ad2.1/2.2 [1] | CTGlo-ATS Mean MinResponse % 72 h PANC0504.1 [2, 6] [%] | GI50 [2, 7] [nM] | CTGlo-ATS Mean MinResponse % 72 h NCIH1568.1 [3, 8] [%] | GI50 [3, 9] [nM] | GI50 [2, 10] [nM] | GI50 [3, 11] [nM] | CTGlo-ATS Mean MinResponse % 72 h PANC0504.1 [2, 12] [%] | GI50 [2, 13] [nM] | GI50 [3, 14] [nM] | CTGlo-ATS Mean MinResponse % 72 h NCIH1568.1 [3, 15] [%] | GI50 ([2]; Panc 05.04, 72 h, read-out: CTGlo-ATS GMean GI50 (nM) 72 h PANC0504.1, PANC0504.1 cells, 72 h) [nM] | GI50 ([3]; NCI-H1568, 72 h, read-out: CTGlo-ATS GMean GI50 (nM) 72 h NCIH1568.1, NCIH1568.1 cells, 72 h) [nM]
C/C(=C\c1cccc(S(=O)(=O)N2CCCC2C)c1)[C@H]1OC(=O)CC(O)CCC(C)[C@@H](OC(=O)N2CCN(C)CC2)/C=C/[C@@H]1C (stereo in doubt) [Compound 200, [(2S,3S,4E,6R,7R,10S)-10-hydroxy-3,7-dimethyl-2-[(E)-1-[3-[(2S)-2-methylpyrrolidin-1-yl]sulfonylphenyl]prop-1-en-2-yl]-12-oxo-1-oxacyclododec-4-en-6-yl] 4-methylpiperazine-1-carboxylate] | 8.03 | 8050 | 27 | 297.600 | −94.085 | 17.4 | −51.281 | 24.2 |  |  |  |  |  |  |  | 
C/C(=C\c1cccc(S(=O)(=O)NC(C)C)c1)[C@H]1OC(=O)CC(O)CCC(C)[C@@H](OC(=O)N2CCN(C)CC2)/C=C/[C@@H]1C (stereo in doubt) [Compound 209, [(2S,3S,4E,6R,7R,10S)-10-hydroxy-3,7-dimethyl-12-oxo-2-[(E)-1-[3-(propan-2-ylsulfamoyl)phenyl]prop-1-en-2-yl]-1-oxacyclododec-4-en-6-yl] 4-methylpiperazine-1-carboxylate] | 4.78 | 3130 | 30 | 104.297 | −93.368 | 16.4 | −51.998 | 12.1 |  |  |  |  |  |  |  | 
CCNS(=O)(=O)c1cccc(/C=C(\C)[C@H]2OC(=O)CC(O)CCC(C)[C@@H](OC(=O)N3CCN(C)CC3)/C=C/[C@@H]2C)c1 (stereo in doubt) [Compound 210, [(2S,3S,4E,6R,7R,10S)-2-[(E)-1-[3-(ethylsulfamoyl)phenyl]prop-1-en-2-yl]-10-hydroxy-3,7-dimethyl-12-oxo-1-oxacyclododec-4-en-6-yl] 4-methylpiperazine-1-carboxylate] | 4.35 | 11000 | 32.7 | 336.112 | −96.896 |  | −51.154 |  | 27.8 | 17 |  |  |  |  |  | 
CNS(=O)(=O)c1cccc(/C=C(\C)[C@H]2OC(=O)CC(O)CCC(C)[C@@H](OC(=O)N3CCN(C)CC3)/C=C/[C@@H]2C)c1 (stereo in doubt) [Compound 212, [(2S,3S,4E,6R,7R,10S)-10-hydroxy-3,7-dimethyl-2-[(E)-1-[3-(methylsulfamoyl)phenyl]prop-1-en-2-yl]-12-oxo-1-oxacyclododec-4-en-6-yl] 4-methylpiperazine-1-carboxylate] | 8.79 | > 25000 | 93.8 | 266.536 | −59.089 | 60.2 | −49.302 | 129 |  |  |  |  |  |  |  | 
[2H]C([2H])([2H])N1CCN(C(=O)O[C@H]2/C=C/C(C)C(/C(C)=C/c3cc(F)cc(N4CCOCC4)c3)OC(=O)CC(O)CC[C@@H]2C)CC1 (stereo in doubt) [Compound 220, [(2R,3R,4E,6R,7S,10S)-2-[(E)-1-(3-fluoro-5-morpholin-4-ylphenyl)prop-1-en-2-yl]-10-hydroxy-3,7-dimethyl-12-oxo-1-oxacyclododec-4-en-6-yl] 4-(trideuteriomethyl)piperazine-1-carboxylate] | 3.17 | 19.3 | 14.4 | 1.344 | −90.506 |  | −76.936 |  | 4.36 | 2.01 |  |  |  |  |  | 
C/C(=C\c1cc(F)cc(N2CCOCC2)c1)[C@H]1OC(=O)C[C@H](O)CC[C@H](C)[C@@H](OC(=O)N2CCC(N(C)C)C2)/C=C/[C@@H]1C (stereo in doubt) [Compound 243, [(2S,3S,4E,6R,7S,10R)-2-[(E)-1-(3-fluoro-5-morpholin-4-ylphenyl)prop-1-en-2-yl]-10-hydroxy-3,7-dimethyl-12-oxo-1-oxacyclododec-4-en-6-yl] (3S)-3-(dimethylamino)pyrrolidine-1-carboxylate] | 3.59 | 98.4 | 38.5 | 2.553 | −92.290 | 10.4 | −71.678 | 10.6 |  |  |  |  |  |  |  | 
COCC(=O)Nc1cc(F)cc(/C=C(\C)[C@H]2OC(=O)CC(O)CCC(C)[C@@H](OC(=O)N3CCN(C)CC3)/C=C/[C@@H]2C)c1 (stereo in doubt) [Compound 249, [(2S,3S,4E,6R,7R,10S)-2-[(E)-1-[3-fluoro-5-[(2-methoxyacetyl)amino]phenyl]prop-1-en-2-yl]-10-hydroxy-3,7-dimethyl-12-oxo-1-oxacyclododec-4-en-6-yl] 4-methylpiperazine-1-carboxylate] | 5.16 | 6350 | 33.6 | 188.921 | −93.297 | 13.8 | −49.016 | 14.5 |  |  |  |  |  |  |  | 
C/C(=C\c1cccc(N2CCNCC2)c1)[C@H]1OC(=O)C[C@H](O)CC[C@H](C)[C@@H](OC(=O)N2CCN(C)CC2)/C=C/[C@@H]1C [Compound 1] | 19.8 | 28.9 | 18.7 |  |  |  |  |  |  |  | −79.550 | 54.8 | 61.2 | −71.582 |  | 
C/C(=C\c1cccc(N2CCN(C)CC2)c1)[C@H]1OC(=O)C[C@H](O)CC[C@H](C)[C@@H](OC(=O)N2CCN(C)CC2)/C=C/[C@@H]1C [Compound 2] | 14.7 | 29.3 | 24.8 |  |  |  |  |  |  |  | −76.626 | 30.3 | 40.6 | −70.665 |  | 
C/C(=C\c1cc(F)cc(N2CCOCC2)c1)[C@H]1OC(=O)C[C@H](O)CC[C@H](C)[C@@H](OC(=O)N2CCN(C)CC2)/C=C/[C@@H]1C [Compound 3] | 1.74 | 18.6 | 10.3 |  |  |  |  |  |  |  | −87.809 |  |  | −78.460 | 2.96 | 2.42
C/C(=C\c1ccc2cn[nH]c2c1)[C@H]1OC(=O)C[C@H](O)CC[C@H](C)[C@@H](OC(=O)N2CCN(C)CC2)/C=C/[C@@H]1C [Compound 4] | 3.8 | > 25000 | 58.7 |  |  |  |  |  |  |  | −27.423 | 26.9 | 15.5 | −46.416 |  | 
